# Results: PubChem BioAssay AID180 (DTP/NCI, 2004)
# Where “and” joins values, the source holds several entries; their conditions need not be identical. Equal entries are not always repeated.
# System: BDF1 mice, Adenocarcinoma 755 s.c., tumor weight T/C
# Test: NCI In Vivo Anticancer Drug Screen. Data for tumor model Adenocarcinoma 755 (subcutaneous) in B6D2F1 (BDF1) mice
# Conditions: endpoint: mean tumor weight, schedule: Q01DX011 (ip), higher = larger tumour
# Method in brief: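 Values express treated (T) relative to vehicle-dosed control (C) animals, based on survival or tumour size measured after compound treatment of mice bearing a transplanted tumour.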
# [1] = dose: 125.0 mg/kg/injection, vehicle: methylcellulose (MC)
# [2] = dose: 250.0 mg/kg/injection, vehicle: methylcellulose (MC)
# [3] = dose: 100.0 mg/kg/injection, vehicle: methylcellulose (MC)
# [4] = dose: 200.0 mg/kg/injection, vehicle: methylcellulose (MC)
# [5] = dose: 300.0 mg/kg/injection, vehicle: methylcellulose (MC)
# [6] = dose: 400.0 mg/kg/injection, vehicle: methylcellulose (MC)
# [7] = dose: 2.25 mg/kg/injection, vehicle: carboxymethylcellulose (CMC)
# [8] = dose: 4.5 mg/kg/injection, vehicle: carboxymethylcellulose (CMC)
# [9] = dose: 75.0 mg/kg/injection, vehicle: methylcellulose (MC)
# [10] = dose: 150.0 mg/kg/injection, vehicle: methylcellulose (MC)
# [11] = dose: 75.0 mg/kg/injection, vehicle: carboxymethylcellulose (CMC)
structure (smiles),measurement,setting,value
CN(C)c1ccc(/C=C/c2ccnc3ccccc23)cc1,T/C,"dose: 4.0 mg/kg/injection, vehicle: water",117 % of control
same,T/C,"dose: 8.0 mg/kg/injection, vehicle: water",105 % of control
same,T/C,"dose: 16.0 mg/kg/injection, vehicle: water",72 % of control
Nc1nc(-c2cccnc2)nc(N)c1N=O,T/C,"dose: 31.0 mg/kg/injection, vehicle: methylcellulose (MC)",120 % of control
same,T/C,"dose: 62.0 mg/kg/injection, vehicle: methylcellulose (MC)",166 % of control
same,T/C,[1],119 % of control
same,T/C,[2],81 % of control
OCC1OC(n2cnc3c(Cl)ncnc32)C(O)C1O (stereo not drawn),T/C,"dose: 62.5 mg/kg/injection, vehicle: carboxymethylcellulose (CMC)",153 % of control
same,T/C,[3],72 % of control
same,T/C,"dose: 125.0 mg/kg/injection, vehicle: carboxymethylcellulose (CMC)",63 % of control
same,T/C,[4],78 % of control
same,T/C,"dose: 250.0 mg/kg/injection, vehicle: carboxymethylcellulose (CMC)",55 % of control
same,T/C,[5],90 % of control
same,T/C,[6],63 % of control
same,T/C,"dose: 500.0 mg/kg/injection, vehicle: methylcellulose (MC)",11 % of control
same,T/C,"dose: 750.0 mg/kg/injection, vehicle: methylcellulose (MC)",4 % of control
same,T/C,"dose: 1000.0 mg/kg/injection, vehicle: methylcellulose (MC)",15 % of control
CN(Cc1cnc2nc(N)nc(N)c2n1)c1ccc(C(=O)N[C@@H](CCC(=O)O)C(=O)O)cc1,T/C,"dose: 0.56 mg/kg/injection, vehicle: carboxymethylcellulose (CMC)",94 % of control
same,T/C,"dose: 0.84 mg/kg/injection, vehicle: carboxymethylcellulose (CMC)",57 % of control
same,T/C,"dose: 1.0 mg/kg/injection, vehicle: other",77 % of control
same,T/C,"dose: 1.05 mg/kg/injection, vehicle: carboxymethylcellulose (CMC)",48 % of control
same,T/C,"dose: 1.13 mg/kg/injection, vehicle: carboxymethylcellulose (CMC)",48 % of control
same,T/C,"dose: 1.4 mg/kg/injection, vehicle: carboxymethylcellulose (CMC)",36 % of control
same,T/C,"dose: 2.0 mg/kg/injection, vehicle: carboxymethylcellulose (CMC)",49 % of control
same,T/C,"dose: 2.0 mg/kg/injection, vehicle: other",43 % of control
same,T/C,"dose: 2.1 mg/kg/injection, vehicle: carboxymethylcellulose (CMC)",27 % of control
same,T/C,[7],96 % of control
same,T/C,[8],48 % of control
same,T/C,"dose: 263.0 micrograms/kg/injection, vehicle: carboxymethylcellulose (CMC)",66 % of control
same,T/C,"dose: 525.0 micrograms/kg/injection, vehicle: carboxymethylcellulose (CMC)",53 % of control
same,T/C,"dose: 563.0 micrograms/kg/injection, vehicle: carboxymethylcellulose (CMC)",63 % of control
same,T/C,"dose: 1050.0 micrograms/kg/injection, vehicle: carboxymethylcellulose (CMC)",68 % of control
same,T/C,"dose: 1125.0 micrograms/kg/injection, vehicle: carboxymethylcellulose (CMC)",97 % of control
same,T/C,"dose: 2100.0 micrograms/kg/injection, vehicle: carboxymethylcellulose (CMC)",31 % of control
same,T/C,"dose: 2250.0 micrograms/kg/injection, vehicle: carboxymethylcellulose (CMC)",68 % of control
C=CC(O)CN1CC1(C)C (stereo not drawn) (tested in a mixture with another compound),T/C,"dose: 1.9 mg/kg/injection, vehicle: methylcellulose (MC)",99 % of control
same,T/C,"dose: 3.75 mg/kg/injection, vehicle: methylcellulose (MC)",107 % of control
same,T/C,"dose: 15.0 mg/kg/injection, vehicle: methylcellulose (MC)",75 % of control
c1ccc2[nH]cnc2c1,T/C,"dose: 38.5 mg/kg/injection, vehicle: carboxymethylcellulose (CMC)",74 % of control
same,T/C,"dose: 40.0 mg/kg/injection, vehicle: carboxymethylcellulose (CMC)",93 % of control
same,T/C,"dose: 43.5 mg/kg/injection, vehicle: carboxymethylcellulose (CMC)",116 % of control
same,T/C,"dose: 62.5 mg/kg/injection, vehicle: methylcellulose (MC)",60 % of control
same,T/C,"dose: 77.0 mg/kg/injection, vehicle: carboxymethylcellulose (CMC)",62 % of control
same,T/C,"dose: 80.0 mg/kg/injection, vehicle: carboxymethylcellulose (CMC)",72 % of control
same,T/C,"dose: 87.0 mg/kg/injection, vehicle: carboxymethylcellulose (CMC)",110 % of control
same,T/C,"dose: 123.2 mg/kg/injection, vehicle: carboxymethylcellulose (CMC)",41 % of control and 57 % of control
same,T/C,[1],88 % of control
same,T/C,"dose: 160.0 mg/kg/injection, vehicle: carboxymethylcellulose (CMC)",105 % of control
same,T/C,"dose: 174.0 mg/kg/injection, vehicle: carboxymethylcellulose (CMC)",101 % of control
same,T/C,"dose: 205.33 mg/kg/injection, vehicle: carboxymethylcellulose (CMC)",77 % of control and 82 % of control
same,T/C,[2],118 % of control
same,T/C,"dose: 320.0 mg/kg/injection, vehicle: carboxymethylcellulose (CMC)",123 % of control
same,T/C,"dose: 348.0 mg/kg/injection, vehicle: carboxymethylcellulose (CMC)",76 % of control
Cc1ccc(CSc2ncnc3nc[nH]c23)cc1C,T/C,"dose: 18.75 mg/kg/injection, vehicle: methylcellulose (MC)",48 % of control
same,T/C,"dose: 37.5 mg/kg/injection, vehicle: methylcellulose (MC)",41 % of control
same,T/C,[9],32 % of control
same,T/C,[10],7 % of control
CN(C)c1nc(S(=O)(=O)N(C)C)nc2nc[nH]c12,T/C,"dose: 25.0 mg/kg/injection, vehicle: carboxymethylcellulose (CMC)",115 % of control
same,T/C,[11],117 % of control
same,T/C,"dose: 225.0 mg/kg/injection, vehicle: carboxymethylcellulose (CMC)",95 % of control
CC(C)CCS(=O)(=O)OCCCCOS(=O)(=O)CCC(C)C,T/C,[9],67 % of control
same,T/C,[3],34 % of control
same,T/C,[10],89 % of control
same,T/C,[4],5 % of control
same,T/C,[5],60 % of control
same,T/C,"dose: 400.0 mg/kg/injection, vehicle: carboxymethylcellulose (CMC)",56 % of control
same,T/C,[6],20 % of control
same,T/C,"dose: 600.0 mg/kg/injection, vehicle: carboxymethylcellulose (CMC)",33 % of control
same,T/C,"dose: 600.0 mg/kg/injection, vehicle: methylcellulose (MC)",75 % of control
Cn1c(N)nc2c(ncn2C2CC(O)C(CO)O2)c1=O (stereo not drawn),T/C,"dose: 30.0 mg/kg/injection, vehicle: carboxymethylcellulose (CMC)",109 % of control
same,T/C,"dose: 60.0 mg/kg/injection, vehicle: carboxymethylcellulose (CMC)",82 % of control
same,T/C,"dose: 120.0 mg/kg/injection, vehicle: carboxymethylcellulose (CMC)",89 % of control
Brc1ncnc2nc[nH]c12,T/C,"dose: 1.12 mg/kg/injection, vehicle: carboxymethylcellulose (CMC)",99 % of control
same,T/C,[7],100 % of control
same,T/C,[8],43 % of control
same,T/C,"dose: 9.0 mg/kg/injection, vehicle: carboxymethylcellulose (CMC)",50 % of control
same,T/C,"dose: 9.37 mg/kg/injection, vehicle: carboxymethylcellulose (CMC)",10 % of control
same,T/C,"dose: 18.75 mg/kg/injection, vehicle: carboxymethylcellulose (CMC)",10 % of control
same,T/C,"dose: 37.5 mg/kg/injection, vehicle: carboxymethylcellulose (CMC)",2 % of control
same,T/C,[11],1 % of control and 6 % of control
same,T/C,"dose: 150.0 mg/kg/injection, vehicle: carboxymethylcellulose (CMC)",6 % of control
Nc1nc(N)c2cnnn2n1,T/C,"dose: 25.0 mg/kg/injection, vehicle: saline",83 % of control
same,T/C,"dose: 75.0 mg/kg/injection, vehicle: saline",116 % of control
